# Read-outs that look alike come from different tables or passages of the source.
# Experiments:
# [1] = RPLC determination of sspKa in EtOH-water binary mixtures (green RPLC); type: physicochemical; conditions: standard deviation in parentheses
# Experimental: (§1) The analysis of the compounds on the HPLC column was determined in binary mixtures of ACN–water and EtOH–water containing 50, 55, and 60% (v/v) organic solvents at varying pH values (5.5–11.5). Buffer compounds containing 30 mM o-H3PO4 and NH4Cl at the same concentration were used in the mobile phases according to the pH values at which the buffers were effective.
# (§2) The pH value of the mobile phase was adjusted by adding a 1 M NaOH solution to the mobile phase containing o-H3PO4 and by adding concentrated NH3 solution to the mobile phase containing ammonium chloride. The pH values of the binary mixtures in this mobile phase were evaluated according to the International Union of Pure and Applied Chemistry (IUPAC) guideline, taking into account the reference pH values obtained from the National Institute of Standards and Technology (NIST). − KHP (0.05 mol/kg) was used as a reference standard for electrode calibration in hydroorganic mixtures. The pH value (pHx) of this hydroorganic mixture can be determined by eq . pHx=pHs+Es−Ex/(ln10)RT/F 1
# (§3) Solutions of the investigated compounds in binary mixtures were prepared daily. Standard solutions at 100 μg/mL concentrations were prepared in the studied mobile phase. Fresh solutions were prepared daily and stored at +4 °C in the dark until analysis. For testing, a 20 μL sample was injected three times into the HPLC instrument. The average t R was calculated from these replicates, showing precision with a relative standard deviation (%RSD) of approximately 0.01.
# (§4) This liquid chromatographic study was performed at 25 and 37 °C. Chromatographic determination of the compounds was performed on a Kinetex EVO C18 (Phenomenex, 150 × 4.6 mm ID, 5 μm) core–shell column at a constant flow rate of 1 mL/min. There are no data in the literature regarding the determination of the retention behavior of compounds by analysis with HPLC columns produced with the core–shell technique. Additionally, the theoretical plate number of the column being 2000 and above and the tailing factor being below 2 indicate optimum column performance and satisfactory peak symmetry.
# (§5) The t R values of promethazine, promazine, and trimeprazine for the study on the HPLC column were determined by using the RPLC method at different pH values in binary mixtures. The s ^spK a values of the ionizable and molecular forms (BH^+, B) were calculated using the nonlinear regression program (NLREG).
# (§6) The intrinsic t R (t RBH^+ , t RB) and s ^spK a values of the studied compounds were calculated in the NLREG program using the average t R values determined depending on the changing EtOH and ACN concentrations and pH values in the mobile phase. It is seen that the standard deviation values of the sigmoidal fitting parameters (t RBH^+ , t RB, and s ^spK a) given in Table are very small. Since good results were obtained by using the t R value directly, the k value was not used. Although the changes in s ^spK a values according to the solvent composition in the mobile phase used were different for each compound, the same type of sigmoidal behavior was obtained as in Figure . The s ^spK a of basic compounds decreases mainly due to electrostatic interactions that contribute to the pK a value. Since ACN (0.46) and EtOH (0.65) have lower relative polarity compared to water (1.00), the solute–solvent polar interaction decreases as the amount of organic solvent in the mobile phase increases. Therefore, the t R value increases as the pH value of the mobile phase increases, while the t R value decreases as the amount of organic solvents in the mobile phase increases. In the mobile phase rich in ACN (0.25 ≤ X ACN ≤ 0.33) and EtOH (0.26 ≤ X EtOH ≤ 0.35), preferential solvation with water exists, and this can explain the decrease in the s ^spK a values of the studied compounds when the amount of organic solvent in the mobile phase increases. ,
# [2] = Aqueous pKa (wwpKa) calculated from sspKa via X solvent - sspKa and 1/ε - sspKa linear relationships; type: physicochemical; conditions: for wwpKa, 1/εACN - sspKa approach / wwpKa, X ACN - sspKa approach: from ACN-water data; for wwpKa, 1/εEtOH - sspKa approach / wwpKa, X EtOH - sspKa approach: from EtOH-water data
# Experimental: The w ^wpK a values of promethazine, promazine, and trimeprazine in a water medium were determined by evaluating the obtained s ^spK a values of the compounds with the X solvent – s ^spK a , and the reciprocal of the solvent’s dielectric constant (1/ε) – s ^spK a relationships.
# In this study, the w ^wpK a values of the examined compounds were determined based on the mole fraction of solvent-s ^spK a (X solvent – s ^spK a) and 1/εsolvent – s ^spK a approaches. In the calculation using the solvent mole fraction, the intercept values of the equation obtained from the linear relationship between the organic solvent X solvent and s ^spK a give the w ^wpK a values of the compounds examined.
# To confirm the computed w ^wpK a values, an alternative approach was employed. Within the scope of the study, the correlation between the inverse of the dielectric constant value of the organic solvent (1/ε) and the s ^spK a values of the compounds was utilized. Since the ε values depend on the temperature, these values were taken from Gagliardi et al. and Navarkhele and Navarkhele for the two temperatures under study. , In the obtained linear equations, ε values in the water environment were used for increasing temperatures, and w ^wpK a values for the compounds could be determined. There was a decrease in the dielectric constant with the decrease in solvent polarity.
# Figure illustrates the linear relationship between the solvent’s macroscopic constant X solvent and s ^spK a values.
# [3] = source not stated; cited from earlier work
# [4] = Percent ionization of the basic functional group by Henderson-Hasselbach equation; type: physicochemical; conditions: from wwpKa at 37 °C (EtOH-water)
# From the text: Drug molecules can ionize at different pH ranges, and the pK a value serves as a universal measure of ionization. […] Changing the ionic form of a drug can affect its action, absorption, and therapeutic efficacy depending on the pH of the medium. Therefore, evaluating the degree of ionization of the compounds selected in this study is crucial. Using the Henderson–Hasselbach equation, the percent ionization and pK a (at 50% ionization) of the basic functional group of each compound at different pH values were calculated (Figure S4). Since a green chemistry approach was preferred in this study, the w ^wpK a values at 37 °C, determined from data obtained from an EtOH-water binary mixture, were used in the calculation of the percentage ionization. […] At a pH value 2 pH units above the pK a, the basic compound is in its un-ionized form. It is known that the hydrophilic properties of compounds decrease as the alkyl chain length increases. According to the data in Table S2, the percentage ionization values increase as the alkyl chain length increases.
# [5] = RPLC determination of sspKa in ACN-water binary mixtures (conventional RPLC); type: physicochemical; conditions: standard deviation in parentheses
# Experimental: as §1, §2, §3, §4, §5, §6
# [6] = cited from earlier work
Compound,"sspKa ([1]; 50% (v/v) EtOH-water, 25 °C)","sspKa ([1]; 50% (v/v) EtOH-water, 37 °C)","sspKa ([1]; 55% (v/v) EtOH-water, 25 °C)","sspKa ([1]; 55% (v/v) EtOH-water, 37 °C)","sspKa ([1]; 60% (v/v) EtOH-water, 25 °C)","sspKa ([1]; 60% (v/v) EtOH-water, 37 °C)","wwpKa, 1/εACN - sspKa approach ([2]; 25 °C)","wwpKa, X ACN - sspKa approach ([2]; 25 °C)","wwpKa, 1/εACN - sspKa approach ([2]; 37 °C)","wwpKa, 1/εEtOH - sspKa approach ([2]; 25 °C)","wwpKa, X EtOH - sspKa approach ([2]; 25 °C)","wwpKa, 1/εEtOH - sspKa approach ([2]; 37 °C)","wwpKa, X EtOH - sspKa approach ([2]; 37 °C)",logP [3],% Ionization value ([4]; pH 2.0) [%],% Ionization value ([4]; pH 7.4) [%],% Ionization value ([4]; pH 9.0) [%],% Ionization value ([4]; pH 10.0) [%],% Ionization value ([4]; pH 12.0) [%],"sspKa ([5]; 50% (v/v) ACN-water, 25 °C)",further results
CC(CN1c2ccccc2Sc2ccccc21)N(C)C (stereo not shown) [promethazine],9.117 (0.011) ^a,8.926 (0.082),8.999 (0.008),8.824 (0.009),8.900 (0.071),8.666 (0.031),9.980,10.056,9.924,9.761,9.821,9.716,9.787,3.14,100,99.591,85.962,37.979,0.609,9.167 (0.064) ^a,"wwpKa, X ACN - sspKa approach ([2]; 37 °C): 10.006; sspKa ([5]; 50% (v/v) ACN-water, 37 °C): 9.108 (0.045); sspKa ([5]; 55% (v/v) ACN-water, 25 °C): 9.007 (0.064); sspKa ([5]; 55% (v/v) ACN-water, 37 °C): 8.947 (0.097); sspKa ([5]; 60% (v/v) ACN-water, 25 °C): 8.868 (0.075); sspKa ([5]; 60% (v/v) ACN-water, 37 °C): 8.806 (0.053)"
CC(CN(C)C)CN1c2ccccc2Sc2ccccc21 (stereo not shown) [trimeprazine],9.388 (0.012),9.329 (0.034),9.278 (0.016),9.243 (0.091),9.167 (0.034),9.118 (0.045),10.134,10.268,10.112,10.049,10.110,9.968,10.027,4.11,100,99.765,91.410,51.554,1.053,9.643 (0.078),"pKa, literature values ([6]; 25 °C, different methods (CE, potentiometry, UV-Vis)): 10.12; sspKa ([5]; 50% (v/v) ACN-water, 37 °C): 9.470 (0.073); sspKa ([5]; 55% (v/v) ACN-water, 25 °C): 9.527 (0.038); sspKa ([5]; 55% (v/v) ACN-water, 37 °C): 9.329 (0.050); sspKa ([5]; 60% (v/v) ACN-water, 25 °C): 9.425 (0.062); sspKa ([5]; 60% (v/v) ACN-water, 37 °C): 9.202 (0.047)"
CN(C)CCCN1c2ccccc2Sc2ccccc21 [promazine],9.185 (0.042),9.048 (0.024),8.978 (0.008),8.914 (0.053),8.808 (0.042),8.805 (0.066),10.361,10.468,10.120,10.302,10.407,9.766,9.836,3.75,100,99.635,87.269,40.670,0.681,9.265 (0.088),"pKa, literature values ([6]; 37 °C): 9.11 ± 0.03; wwpKa, X ACN - sspKa approach ([2]; 37 °C): 10.213; sspKa ([5]; 50% (v/v) ACN-water, 37 °C): 9.195 (0.036); sspKa ([5]; 55% (v/v) ACN-water, 25 °C): 9.096 (0.012); sspKa ([5]; 55% (v/v) ACN-water, 37 °C): 9.042 (0.082); sspKa ([5]; 60% (v/v) ACN-water, 25 °C): 8.867 (0.009); sspKa ([5]; 60% (v/v) ACN-water, 37 °C): 8.857 (0.082)"
